Results as given in patent publication US6524800B2, “Exploiting genomics in the search for new drugs” (Affymetrix, Inc., priority 1997, dated 2003).
pIC50: −log10 of the molar value. Where two headings read alike, the source gives them in different places.

What was measured:
[1] = system: human lung fibroblast cells; settings: cited from earlier work
Srb10 = target: T1, Srb10 (Saccharomyces cerevisiae, UniProt P39073); experiment: kinase assay in immunoprecipitates, Srb10; format: biochemical; settings: immunoprecipitated yeast kinase
T1 construct: made in house
T1 sequence (P39073 whole entry): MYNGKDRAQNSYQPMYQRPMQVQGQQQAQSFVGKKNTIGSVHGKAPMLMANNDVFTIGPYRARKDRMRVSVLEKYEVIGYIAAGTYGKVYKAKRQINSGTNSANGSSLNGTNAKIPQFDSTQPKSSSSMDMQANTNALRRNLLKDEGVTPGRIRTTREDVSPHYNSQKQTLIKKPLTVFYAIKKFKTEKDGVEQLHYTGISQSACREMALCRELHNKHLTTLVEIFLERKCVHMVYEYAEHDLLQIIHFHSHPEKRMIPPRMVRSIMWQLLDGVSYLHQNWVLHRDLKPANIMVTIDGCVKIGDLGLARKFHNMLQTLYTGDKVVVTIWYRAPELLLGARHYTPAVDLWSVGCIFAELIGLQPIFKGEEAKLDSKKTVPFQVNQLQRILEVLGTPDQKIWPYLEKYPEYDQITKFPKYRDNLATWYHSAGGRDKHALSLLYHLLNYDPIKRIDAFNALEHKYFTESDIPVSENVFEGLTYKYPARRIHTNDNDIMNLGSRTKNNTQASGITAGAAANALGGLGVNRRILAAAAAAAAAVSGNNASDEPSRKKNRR
T1 sequence (P47821 whole entry partner): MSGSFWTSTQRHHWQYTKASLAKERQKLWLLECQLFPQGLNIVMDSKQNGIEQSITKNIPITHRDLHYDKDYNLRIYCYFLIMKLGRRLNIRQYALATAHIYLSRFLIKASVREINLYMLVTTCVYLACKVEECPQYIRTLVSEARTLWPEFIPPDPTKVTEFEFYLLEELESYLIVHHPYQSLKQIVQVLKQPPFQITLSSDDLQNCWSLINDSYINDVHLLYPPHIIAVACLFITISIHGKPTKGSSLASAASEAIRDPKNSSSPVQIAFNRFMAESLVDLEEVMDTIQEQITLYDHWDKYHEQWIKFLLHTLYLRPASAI

Cdc28p = target: T2, Cdc28p (Saccharomyces cerevisiae, UniProt P00546); experiment: kinase assay in immunoprecipitates, Cdc28p; format: biochemical, yeast
T2 construct: made in house
T2 sequence (P00546 whole entry): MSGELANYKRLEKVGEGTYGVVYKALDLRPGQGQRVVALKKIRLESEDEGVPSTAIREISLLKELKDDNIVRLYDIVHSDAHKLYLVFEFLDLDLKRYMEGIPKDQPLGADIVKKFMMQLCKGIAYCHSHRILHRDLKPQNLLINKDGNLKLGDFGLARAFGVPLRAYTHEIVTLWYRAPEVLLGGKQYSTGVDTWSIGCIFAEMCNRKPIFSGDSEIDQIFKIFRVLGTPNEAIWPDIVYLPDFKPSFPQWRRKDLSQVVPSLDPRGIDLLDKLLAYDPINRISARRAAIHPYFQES

Cak1p = target: T3, Cak1p (Saccharomyces cerevisiae, UniProt P43568); experiment: kinase assay in immunoprecipitates, Cak1p; format: biochemical; settings: immunoprecipitated yeast kinase
T3 construct: made in house
T3 sequence (P43568 whole entry): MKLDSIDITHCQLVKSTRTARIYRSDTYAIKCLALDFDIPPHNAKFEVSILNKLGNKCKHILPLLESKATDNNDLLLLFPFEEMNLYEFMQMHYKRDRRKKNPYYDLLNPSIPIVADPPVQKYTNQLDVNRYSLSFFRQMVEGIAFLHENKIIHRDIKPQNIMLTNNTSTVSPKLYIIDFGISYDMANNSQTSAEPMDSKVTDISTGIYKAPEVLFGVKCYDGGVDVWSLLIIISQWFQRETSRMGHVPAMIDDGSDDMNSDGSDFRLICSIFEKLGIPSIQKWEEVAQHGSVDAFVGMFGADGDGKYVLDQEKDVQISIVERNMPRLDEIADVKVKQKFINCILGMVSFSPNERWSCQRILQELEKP

Pho85p = target: T4, Pho85p (Saccharomyces cerevisiae, UniProt P17157); experiment: kinase assay in immunoprecipitates, Pho85p; format: biochemical, yeast
T4 construct: made in house
T4 sequence (P17157 whole entry): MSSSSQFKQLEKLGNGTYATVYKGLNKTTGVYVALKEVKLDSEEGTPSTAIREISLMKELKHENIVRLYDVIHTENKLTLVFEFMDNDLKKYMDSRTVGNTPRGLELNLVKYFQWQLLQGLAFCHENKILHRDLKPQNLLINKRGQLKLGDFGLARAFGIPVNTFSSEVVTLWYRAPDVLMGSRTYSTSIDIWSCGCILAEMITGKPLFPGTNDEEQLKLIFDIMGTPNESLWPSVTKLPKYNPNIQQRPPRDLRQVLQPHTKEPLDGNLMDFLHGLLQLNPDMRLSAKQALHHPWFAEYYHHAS

[2] = system: drug-sensitized yeast strain; experiment: yeast growth inhibition; format: cell-based; settings: Saccharomyces cerevisiae; strain with drug-sensitizing deletions (erg6, pdr5, snq2)
[3] = system: mRNA levels of nearly all yeast genes; experiment: transcript profiling with high-density oligonucleotide expression arrays; format: cell-based, S. cerevisiae; settings: for number of genes with greater than twofold change in transcript level: more than 6200 genes monitored
Protocol: In addition to measuring the inhibitory effects of purine derivatives in kinase assays and assays of cell growth, their effects on the mRNA levels of nearly all yeast genes were determined with high-density oligonucleotide expression arrays (17, 18). These arrays (19, 20) make it possible to measure quantitatively and in parallel mRNA levels for a very large number of genes after any chemical, environmental, or genetic perturbation.
Yeast cultures were grown to late logarithmic phase (15), treated with 25 μM concentrations of the inhibitors for 2 hours, after which cellular polyadenylated mRNA was isolated and converted to biotin-labeled complementary RNA (cRNA) (17, 18). The labeled cRNA was then hybridized to a set of four arrays containing more than 260,000 25-nucleotide oligomers (20).
15. […] Three cultures [110 ml, in yeast extract, peptone, and dextrose (YPD)] were inoculated with single colonies of YRP1 (MAT, erg6::LEU2, pdr5::TRP1, snq2::HIS6) and grown at 30° C. with constant agitation in a water bath incubator. When the cell density reached an optical density (OD) of 0.9 (at a wavelength of 600 nm), 27.5 μl of a 100 mM dimethyl sulfoxide (DMSO) stock solution of 52 or flavopiridol or DMSO alone was added. After 2 hours the cells were harvested by centrifugation and flash frozen with liquid nitrogen. For the temperature-sensitive cdc28 mutants, three cultures (75 ml, YPD) of AFS 199 (cdc28-13), AA104 (cdc28-4), and their isogenic background strain AFS34 (MATa, ade2-1, his3-11, leu2-3, trp1-1, ura3) were grown from single colonies to an OD of 0.9 (600 nm) and harvested as described. Frozen cells were stored at […]

Kin28p = target: T5, Kin28p (Saccharomyces cerevisiae, UniProt P06242); experiment: kinase assay in immunoprecipitates, Kin28p; format: biochemical; settings: immunoprecipitated yeast kinase
T5 construct: made in house
T5 sequence (P06242 whole entry): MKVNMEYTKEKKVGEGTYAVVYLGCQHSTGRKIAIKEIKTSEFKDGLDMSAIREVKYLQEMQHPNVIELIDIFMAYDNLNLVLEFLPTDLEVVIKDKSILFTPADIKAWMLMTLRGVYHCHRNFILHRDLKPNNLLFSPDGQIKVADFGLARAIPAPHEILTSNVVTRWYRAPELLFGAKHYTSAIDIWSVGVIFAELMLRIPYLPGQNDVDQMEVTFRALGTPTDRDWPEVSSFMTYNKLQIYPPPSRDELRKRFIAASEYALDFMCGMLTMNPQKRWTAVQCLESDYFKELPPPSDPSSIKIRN
T5 sequence (P37366 whole entry partner): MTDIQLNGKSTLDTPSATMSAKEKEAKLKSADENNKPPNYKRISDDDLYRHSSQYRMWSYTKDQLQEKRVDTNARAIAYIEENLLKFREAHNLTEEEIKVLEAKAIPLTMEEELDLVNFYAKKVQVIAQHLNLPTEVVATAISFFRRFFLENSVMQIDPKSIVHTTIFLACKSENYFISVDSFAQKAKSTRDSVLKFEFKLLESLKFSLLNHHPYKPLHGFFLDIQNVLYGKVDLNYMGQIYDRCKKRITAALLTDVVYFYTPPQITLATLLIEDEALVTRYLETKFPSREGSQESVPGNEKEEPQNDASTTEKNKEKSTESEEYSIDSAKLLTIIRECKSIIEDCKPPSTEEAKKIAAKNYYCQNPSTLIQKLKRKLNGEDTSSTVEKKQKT

yeast cells = experiment: yeast arrest morphology and FACS; format: cell-based
From the text: 16. The diminished growth inhibitory activity of compound 52Me is unlikely to result from poorer bioavailability because a similar N6 methylation is observed to increase the in vivo potency of a related series of purine-based inhibitors. The residual growth inhibitory activity of 52Me likely reflects activity against other cellular targets.

cdc2-cyclin B = experiment: purified kinase phosphorylation assay, cdc2-cyclin B; format: biochemical, Starfish
From the text: To examine the effects of a range of diverse substituents on the purine ring, we synthesized combinatorial libraries in which the 2, 6, and 9 positions could be varied starting with a 2-flouro-6-chloropurine framework. (FIG. 1A) (2,3). Substitution chemistry was used to install amines at the 2 and 6 positions, and a Mitsunobu reaction (4,5) was used to alkylate the N9 position of the purine core. The subsitution chemistry allows introduction of primary and secondary amines bearing a wide range of functional groups, whereas the Mitsunobu reaction tolerates primary and secondary alcohols lacking additional acidic hydrogens. Newly appended groups can be modified combinatorially in subsequent steps with a variety of chemistries including acylation, reductive amination, and Suzuki coupling reactions (6), During library synthesis, one position is held invariant to allow attachment to the solid support. Libraries are synthesized in a spatially separated format with either a pin apparatus (7) or polystyrene resin and screened for kinase inhibitors with a 96-well, solution-phase phosphorylation assay.
9. Starfish is the major source for cdc2-cyclin B kinase.

[4] = system: four yeast CDKs (Cdc28p, Kin28p, Pho85p, and Srb10p) and the related kinase Cak1p; experiment: yeast kinase panel in immunoprecipitates; format: biochemical
[5] = immunoprecipitated yeast kinase
[6] = yeast, inhibitor versus untreated

COc1ccc(CNc2nc(N(CCO)CCO)nc3c2ncn3C(C)C)cc1 [2-(bis-(hydroxylethyl)amino)-6-(4-methoxybenzylamino)-9-isopropylpurine]
cell cycle inhibitory activity by FACS ([1]; high concentrations): both G1-S and G2-M inhibitory activity
cell cycle inhibitory activity by FACS ([1]; lower concentrations): predominant G1-S inhibition

CC(C)n1cnc2c(Nc3cccc(Cl)c3)nc(NCCO)nc21 [Compound 52, 2-(2-hydroxyethylamino)-6-(3-chloroanilino)-9-isopropylpurine]
pIC50 (Srb10): < 3.30
pIC50 (Cdc28p; [5]): 5.15
inhibition of Cdc28p (in words) (Cdc28p; immunoprecipitates): inhibited
pIC50 (Cak1p): < 3.30
pIC50 (Pho85p; [5]): 5.70
inhibition of Pho85p (in words) (Pho85p; immunoprecipitates): inhibited
GI50 [2]: 30 µM
% of transcripts with greater than twofold change ([3]; 25 μM, 2 hours): 3%
number of genes whose transcript levels were decreased at least threefold ([3]; 25 μM, 2 hours): ~50
ribosomal protein transcripts decreased at least threefold ([3]; 25 μM, 2 hours): 14
number of genes with greater than twofold change in transcript level ([3]; 25 μM, 2 hours): 194
YKLO71W transcript Increase ([3]; C52 UNIQUE): 7-12 × Increase (C52)
YCRX13W SOL2 transcript INCREASE ([3]; FLA UNIQUE): C52 - much smaller inc. (NL. 8 x at most) ×
Y13R214W transcript INCREASES [3, 6]: (4-4.5 × for C52
YBL002W HTB2 transcript DECREASES [3, 6]: (˜4.5 × for C52
YBR296C transcript change (in words) [3, 6]: VERY LARGE INCREASE (15-
YDR281 C transcript INCREASE [3, 6]: ˜4.5-5.5 × INCREASE
YGLI79 transcript change (in words) [3, 6]: INCREASES C52 & FLA
YGR108W (CLB 1) transcript DECREASES [3, 6]: (˜8 fold with C52
YKRO97W PCK1 transcript INCREASES [3, 6]: ˜7-8 fold with C52
YLR178c (TFS1) transcript INCREASES [3, 6]: INCREASES ˜6x
pIC50 (Kin28p): < 3.30
arrest morphology in yeast (in words) (yeast cells): failed to cause a uniform arrest morphology
synchronization of yeast cells by FACS (in words) (yeast cells): did not reveal synchronization
pIC50 (cdc2-cyclin B): 6.47

CC(C)n1cnc2c(N(C)c3cccc(Cl)c3)nc(NCCO)nc21 [Compound 52Me]
GI50 [2]: 200 µM
% of transcripts with greater than twofold change ([3]; 25 μM, 2 hours): 0.03%
number of genes with greater than twofold change in transcript level ([3]; 25 μM, 2 hours): 2
arrest morphology in yeast (in words) (yeast cells): failed to cause a uniform arrest morphology
synchronization of yeast cells by FACS (in words) (yeast cells): did not reveal synchronization
inhibition of any of the CDKs tested (in words) [4]: did not inhibit
